# Results as given in US9050341B2, “Methods of treating drug resistant and other tumors by administering 6,7-dialkoxy quinazoline derivatives” (NATCO PHARMA LIMITED, priority 2009, dated 2015).
# Assays:
# Experiment in all cases: KinomeScan kinase profiling
# Assay type in all cases: binding
# MUSK = target: T1, MUSK (Homo sapiens, UniProt O15146)
# T1 construct: host or cells: T7 phage in E. coli host derived from BL21
# TAOK1 = target: T2, TAOK1 (Homo sapiens, UniProt Q7L7X3)
# T2 construct: host or cells: E. coli host derived from the BL21 strain, T7 phage lysate
# T2 sequence (Q7L7X3 whole entry): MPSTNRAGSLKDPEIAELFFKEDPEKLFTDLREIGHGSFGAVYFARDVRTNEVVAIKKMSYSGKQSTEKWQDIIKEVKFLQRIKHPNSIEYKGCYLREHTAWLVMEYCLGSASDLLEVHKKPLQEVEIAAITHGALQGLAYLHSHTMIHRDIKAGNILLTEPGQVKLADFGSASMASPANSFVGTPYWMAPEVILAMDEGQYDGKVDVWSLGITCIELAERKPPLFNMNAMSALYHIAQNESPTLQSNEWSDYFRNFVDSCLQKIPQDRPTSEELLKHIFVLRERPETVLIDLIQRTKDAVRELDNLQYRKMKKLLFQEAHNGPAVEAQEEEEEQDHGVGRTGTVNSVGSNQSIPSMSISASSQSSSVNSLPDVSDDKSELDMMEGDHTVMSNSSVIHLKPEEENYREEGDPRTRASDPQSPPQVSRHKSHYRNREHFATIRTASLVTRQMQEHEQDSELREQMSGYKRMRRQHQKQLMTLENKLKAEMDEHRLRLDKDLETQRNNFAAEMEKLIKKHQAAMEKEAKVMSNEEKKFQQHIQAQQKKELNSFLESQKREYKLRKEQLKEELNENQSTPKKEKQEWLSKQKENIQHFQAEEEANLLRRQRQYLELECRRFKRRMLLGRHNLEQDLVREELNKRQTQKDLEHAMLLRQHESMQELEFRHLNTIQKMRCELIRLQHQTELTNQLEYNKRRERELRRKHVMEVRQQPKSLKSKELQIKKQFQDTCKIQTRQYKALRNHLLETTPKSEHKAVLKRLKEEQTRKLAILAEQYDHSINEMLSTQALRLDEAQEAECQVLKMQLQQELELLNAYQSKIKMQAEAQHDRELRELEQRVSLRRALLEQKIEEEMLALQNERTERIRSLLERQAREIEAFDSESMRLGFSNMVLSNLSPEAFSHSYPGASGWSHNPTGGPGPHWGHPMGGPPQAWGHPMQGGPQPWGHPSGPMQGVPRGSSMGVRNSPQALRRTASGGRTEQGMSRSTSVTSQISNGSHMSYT
# PKN1 = target: T3, PKN1 (Homo sapiens, UniProt Q16512)
# T3 construct: purchased Ambit Biosciences Corp (KinomeScan); host or cells: E. coli host derived from BL21, infected with T7 phage
# T3 sequence (Q16512 whole entry): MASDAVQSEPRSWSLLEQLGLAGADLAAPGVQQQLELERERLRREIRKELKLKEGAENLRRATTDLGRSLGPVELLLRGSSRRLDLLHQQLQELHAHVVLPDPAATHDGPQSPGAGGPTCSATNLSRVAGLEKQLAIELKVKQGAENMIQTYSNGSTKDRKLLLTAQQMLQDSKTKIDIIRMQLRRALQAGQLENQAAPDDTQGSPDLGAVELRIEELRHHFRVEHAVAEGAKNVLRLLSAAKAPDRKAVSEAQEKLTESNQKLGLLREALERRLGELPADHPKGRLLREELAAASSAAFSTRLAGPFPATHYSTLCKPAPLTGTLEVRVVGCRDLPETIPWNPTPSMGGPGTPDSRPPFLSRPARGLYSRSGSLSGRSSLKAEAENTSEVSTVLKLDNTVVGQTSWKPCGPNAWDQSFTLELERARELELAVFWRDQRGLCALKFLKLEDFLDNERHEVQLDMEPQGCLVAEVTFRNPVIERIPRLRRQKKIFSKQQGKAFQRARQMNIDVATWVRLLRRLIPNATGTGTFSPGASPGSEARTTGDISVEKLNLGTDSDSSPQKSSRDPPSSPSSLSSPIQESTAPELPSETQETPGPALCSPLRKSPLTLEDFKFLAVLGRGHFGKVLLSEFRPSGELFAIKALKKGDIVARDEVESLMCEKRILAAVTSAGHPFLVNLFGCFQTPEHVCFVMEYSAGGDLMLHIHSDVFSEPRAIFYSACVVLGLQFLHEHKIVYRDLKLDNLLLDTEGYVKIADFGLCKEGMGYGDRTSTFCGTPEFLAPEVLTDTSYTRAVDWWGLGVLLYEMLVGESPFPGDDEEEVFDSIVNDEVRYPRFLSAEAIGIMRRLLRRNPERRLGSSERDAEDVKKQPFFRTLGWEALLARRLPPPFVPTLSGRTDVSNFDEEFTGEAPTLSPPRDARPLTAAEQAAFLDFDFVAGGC
# PRKCD = target: T4, PRKCD (Homo sapiens, UniProt Q05655)
# T4 construct: purchased Ambit Biosciences Corp (KinomeScan); host or cells: E. coli host derived from BL21, infected with T7 phage
# CDC2L1 = target: T5, CDC2L1 (Homo sapiens, UniProt P21127)
# T5 construct: host or cells: T7 phage in E. coli (BL21-derived)
# T5 sequence (P21127 whole entry): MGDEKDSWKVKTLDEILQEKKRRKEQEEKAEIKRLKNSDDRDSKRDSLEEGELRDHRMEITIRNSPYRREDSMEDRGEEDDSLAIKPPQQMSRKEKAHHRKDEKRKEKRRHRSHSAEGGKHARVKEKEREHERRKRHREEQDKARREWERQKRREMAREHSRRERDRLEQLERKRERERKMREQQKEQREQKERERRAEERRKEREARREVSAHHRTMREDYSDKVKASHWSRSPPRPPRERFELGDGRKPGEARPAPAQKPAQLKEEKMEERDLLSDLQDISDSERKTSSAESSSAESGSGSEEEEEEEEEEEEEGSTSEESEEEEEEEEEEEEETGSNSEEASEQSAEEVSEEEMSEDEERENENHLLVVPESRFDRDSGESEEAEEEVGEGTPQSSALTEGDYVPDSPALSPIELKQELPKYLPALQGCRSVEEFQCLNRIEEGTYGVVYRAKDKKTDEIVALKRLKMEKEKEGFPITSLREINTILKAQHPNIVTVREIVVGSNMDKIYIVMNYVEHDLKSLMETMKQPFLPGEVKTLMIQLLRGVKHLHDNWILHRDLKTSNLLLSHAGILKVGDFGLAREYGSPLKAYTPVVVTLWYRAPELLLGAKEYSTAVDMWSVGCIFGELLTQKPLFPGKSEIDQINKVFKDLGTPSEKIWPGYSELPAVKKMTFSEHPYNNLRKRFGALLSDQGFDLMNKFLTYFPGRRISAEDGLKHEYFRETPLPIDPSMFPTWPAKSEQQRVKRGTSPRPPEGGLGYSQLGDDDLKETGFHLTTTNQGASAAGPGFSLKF
# AKT1 = target: T6, AKT1 (Homo sapiens, UniProt P31749)
# T6 construct: host or cells: E. coli host derived from BL21 (T7 phage lysate)
# T6 sequence (P31749 whole entry): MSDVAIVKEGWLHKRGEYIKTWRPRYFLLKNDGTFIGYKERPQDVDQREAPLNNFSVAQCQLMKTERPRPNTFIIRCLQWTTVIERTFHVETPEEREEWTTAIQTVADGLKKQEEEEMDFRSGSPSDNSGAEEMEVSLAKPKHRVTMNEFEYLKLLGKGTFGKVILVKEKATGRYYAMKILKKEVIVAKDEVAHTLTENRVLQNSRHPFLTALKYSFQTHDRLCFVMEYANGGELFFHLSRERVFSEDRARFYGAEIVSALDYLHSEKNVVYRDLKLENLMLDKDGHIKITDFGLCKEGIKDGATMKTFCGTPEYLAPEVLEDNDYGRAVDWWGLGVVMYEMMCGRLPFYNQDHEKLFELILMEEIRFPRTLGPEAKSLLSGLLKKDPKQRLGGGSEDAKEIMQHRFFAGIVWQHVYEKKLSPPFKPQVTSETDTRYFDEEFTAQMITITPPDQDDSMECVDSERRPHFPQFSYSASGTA
# ACVR1B = target: T7, ACVR1B (Homo sapiens, UniProt P36896)
# T7 construct: host or cells: E. coli host derived from BL21 (T7 phage lysate)
# T7 sequence (P36896 24-505): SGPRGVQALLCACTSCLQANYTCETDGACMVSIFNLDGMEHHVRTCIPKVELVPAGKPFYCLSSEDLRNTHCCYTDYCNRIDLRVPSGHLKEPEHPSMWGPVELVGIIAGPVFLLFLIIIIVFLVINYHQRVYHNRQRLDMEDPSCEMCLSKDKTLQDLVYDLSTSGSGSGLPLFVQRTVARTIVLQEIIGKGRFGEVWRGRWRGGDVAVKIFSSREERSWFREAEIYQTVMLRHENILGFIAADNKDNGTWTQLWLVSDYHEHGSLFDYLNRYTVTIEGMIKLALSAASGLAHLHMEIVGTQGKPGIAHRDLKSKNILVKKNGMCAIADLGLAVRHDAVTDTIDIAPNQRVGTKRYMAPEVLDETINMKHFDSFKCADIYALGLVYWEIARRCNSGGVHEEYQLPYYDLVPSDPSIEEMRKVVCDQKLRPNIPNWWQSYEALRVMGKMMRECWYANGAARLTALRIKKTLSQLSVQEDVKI
# DCAMKL1 = target: T8, DCAMKL1 (Homo sapiens, UniProt O15075)
# T8 construct: purchased Ambit Biosciences Corp (KinomeScan); host or cells: T7 phage in E. coli host derived from BL21
# ABL1 (F317I) = target: T9, ABL1 (F317I) (Homo sapiens, UniProt P00519, F317I)
# T9 construct: host or cells: E. coli host derived from BL21 (T7 phage lysate)
# BMPR1A = target: T10, BMPR1A (Homo sapiens, UniProt P36894)
# T10 construct: purchased Ambit Biosciences Corp (KinomeScan); host or cells: E. coli host derived from the BL21 strain, T7 phage
# T10 sequence (P36894 24-532): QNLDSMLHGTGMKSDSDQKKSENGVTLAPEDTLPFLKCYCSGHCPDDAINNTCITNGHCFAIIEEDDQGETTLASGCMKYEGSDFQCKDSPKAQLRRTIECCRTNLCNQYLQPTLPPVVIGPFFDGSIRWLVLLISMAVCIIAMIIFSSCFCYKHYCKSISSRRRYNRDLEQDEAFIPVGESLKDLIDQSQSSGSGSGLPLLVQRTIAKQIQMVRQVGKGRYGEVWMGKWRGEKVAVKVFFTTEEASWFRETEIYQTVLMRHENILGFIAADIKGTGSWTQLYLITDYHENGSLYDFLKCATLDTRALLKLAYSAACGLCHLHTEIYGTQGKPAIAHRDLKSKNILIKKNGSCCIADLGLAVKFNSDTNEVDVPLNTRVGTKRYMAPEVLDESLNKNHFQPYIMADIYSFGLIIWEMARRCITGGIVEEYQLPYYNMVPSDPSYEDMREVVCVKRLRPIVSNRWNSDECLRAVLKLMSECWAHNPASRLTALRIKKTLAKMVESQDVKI
# T1 sequence (O15146 24-869): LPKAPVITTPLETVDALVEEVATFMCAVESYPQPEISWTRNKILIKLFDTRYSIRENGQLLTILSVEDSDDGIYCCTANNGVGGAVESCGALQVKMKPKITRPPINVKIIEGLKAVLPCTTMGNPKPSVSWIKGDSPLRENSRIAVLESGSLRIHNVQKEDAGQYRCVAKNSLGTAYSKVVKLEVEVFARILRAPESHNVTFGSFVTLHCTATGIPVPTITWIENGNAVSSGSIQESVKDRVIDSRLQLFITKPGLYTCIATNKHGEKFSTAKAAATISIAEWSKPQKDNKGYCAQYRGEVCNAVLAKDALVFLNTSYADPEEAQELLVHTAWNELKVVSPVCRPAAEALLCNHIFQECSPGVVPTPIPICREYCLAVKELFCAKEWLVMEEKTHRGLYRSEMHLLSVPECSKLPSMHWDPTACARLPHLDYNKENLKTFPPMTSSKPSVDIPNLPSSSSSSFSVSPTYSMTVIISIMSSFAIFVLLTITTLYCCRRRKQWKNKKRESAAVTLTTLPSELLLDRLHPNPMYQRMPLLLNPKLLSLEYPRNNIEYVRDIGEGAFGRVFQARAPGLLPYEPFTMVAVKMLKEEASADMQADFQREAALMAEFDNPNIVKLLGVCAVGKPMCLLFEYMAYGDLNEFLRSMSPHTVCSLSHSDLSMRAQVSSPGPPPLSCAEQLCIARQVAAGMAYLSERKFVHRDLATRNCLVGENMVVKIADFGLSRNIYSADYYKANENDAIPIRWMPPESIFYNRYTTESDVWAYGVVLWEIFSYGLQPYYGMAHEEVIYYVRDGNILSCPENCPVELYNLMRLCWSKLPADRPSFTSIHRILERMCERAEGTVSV
smiles,measurement,setting,value
"C#Cc1cccc(Nc2ncnc3cc(OC)c(OCCCN4CCOCC4)cc23)c1 [NRC-2694, N-(3-ethylnylphenyl)-7-methoxy-6-[3-(4-morpholinyl)propoxy]-4-quinazolinamine]",% Ctrl @ 10000 nM,MUSK,100 % Ctrl
same,% Ctrl @ 10000 nM,TAOK1,54 % Ctrl
same,% Ctrl @ 10000 nM,PKN1,50 % Ctrl
same,% Ctrl @ 10000 nM,PRKCD,84 % Ctrl
same,% Ctrl @ 10000 nM,CDC2L1,42 % Ctrl
same,% Ctrl @ 10000 nM,AKT1,100 % Ctrl
same,% Ctrl @ 10000 nM,ACVR1B,63 % Ctrl
same,% Ctrl @ 10000 nM,DCAMKL1,92 % Ctrl
same,% Ctrl @ 10000 nM,ABL1 (F317I),48 % Ctrl
same,% Ctrl @ 10000 nM,BMPR1A,100 % Ctrl
